According to patent US8962637B2, “Bicyclic compounds and their uses as dual c-SRC/JAK inhibitors” (Debiopharm S.A., priority 2010, dated 2015):

Columns and labels:
pStat3 [1] = assay: In-Cell-Western blot assay for pStat3 (ICW) in A431 cells; format: cell-based; conditions: Homo sapiens, A-431, 2 hrs, read-out: pSTAT3 inhibition
Outline: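 Serum-starved (overnight) A431 cells treated with compound for 2 hrs, then fixed, permeabilized and probed with phospho-Stat3 antibody plus europium-labelled secondary. Europium signal normalized to Hoechst for cell number; IC50 calculated from normalized values.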

A431 cancer cell line = assay: Inhibition of cell growth in A431; format: cell-based; conditions: Homo sapiens, A-431
A549 cells = assay: Cell viability assay (XTT assay), A549; format: cell-based; conditions: Homo sapiens, 72 hrs
Experimental: Next day compounds were added to cells and incubated for 72 hrs. Compound treatment was done in triplicates. After 72 hrs cell culture media was aspirated from the wells and XTT working solution was added and plates were incubated for 2-5 hrs. […] EC50 values were calculated using Graphpad Prism. Tumor cell lines used in the examples of the present invention were procured from ATCC. Description of the cell lines is included in the following table: […]

Mda-Mb-231 cells = assay: Cell viability assay (XTT assay), Mda-Mb-231; format: cell-based; conditions: Homo sapiens, 72 hrs
Outline: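 MDA-MB-231 cells seeded and dosed next day in triplicate, incubated 72 h. Medium replaced with XTT working solution for 2-5 h, absorbance read at 465 nm, and EC50 values derived from the readings.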

Volume distribution = conditions: in vivo
From the text: Table 8 provides some volume distribution values of the compounds of the present invention.

JAK1 = JAK1 (Homo sapiens (Human), UniProt P23458); assay: JAK1 kinase inhibition; format: biochemical; conditions: for inhibition at 0.1 µM: read-out: JAK1 % inhibition at 100 nM; for inhibition at 1 µM: read-out: JAK1 % inhibition at 1 μM
c-Src = c-Src (Homo sapiens (Human), UniProt P12931); assay: TR-FRET c-Src kinase assay; format: biochemical; conditions: ATP 50 μM; for inhibition at 0.1 µM: read-out: c-SRC % inhibition at 100 nM, 100 nM; for inhibition at 1 µM: read-out: c-SRC % inhibition at 1 μM
Experimental: (§1) Compounds were screened in the TR-FRET assay for JAK2 and c-Src kinase inhibition. Ultra light poly GT (Perkin Elmer) was used as the substrate for JAK2 and c-Src with the ATP concentration of 10 μM and 50 μM, respectively. […] The dose-response curve fitting was done using GraphPad Prism software.

JAK2 = JAK2 (Homo sapiens (Human), UniProt O60674); assay: TR-FRET JAK2 kinase assay; format: biochemical; conditions: ATP 10 μM; for inhibition at 0.1 µM: read-out: JAK2 % inhibition at 100 nM, 100 nM; for inhibition at 1 µM: read-out: JAK2 % inhibition at 1 μM
Experimental: as §1

pStat3 [2] = assay: Quantification of pStat3 in PBMCs by flow cytometry; format: in vivo, mice
Experimental: Phosphorylation of Stat3 was stimulated by addition of hIL6 (10 ug/mL) for 30 min at 37° C. Blood was fixed with formaldehyde (final 2% v/v) for 10 min at 37° C.
Buffy coat (PBMCs) was separated by aspirating translucent layer using pipetteman and washed twice with PBS-1×
Pre chilled PBMC's were permeabilized by adding ice cold Methanol, while vortexing gently (final volume 90% MeOH v/v) and incubated for 30 min on ice.
Permeabilized PBMCs were washed with PBS once. PBMCs re-suspended to 2×10^6 cells in 200 μL of incubation buffer for 10 min at room temperature (RT). Primary Ab was added (1:100 dilution) and incubated 45 min at RT. Washed as before (twice) and re-suspended in fluorochrome conjugated secondary Ab (1:500 dilution) and incubated at RT in dark for 30 min. Washed and re-suspended in […] PBS.
(§2) Measured pStat3 using FACS caliber machine (BD). Unstained PBMCs was used for cytometry settings. […] Histograms (cell number V/s FL1-H) were plotted. Percentage of cells that are phosphorylated by IL6 stimulation (M2 population), and inhibition of phosphorylation by inhibitor (decrease in M2 population) are calculated on histogram by marking peaks, M1 and M2.

pStat3 [3] = assay: Quantification of pStat3 in tumors by flow cytometry; format: in vivo, mice; conditions: A549 Xenograft model
Experimental: as §2
Separate the tumour & 200 mg of tumour was crashed (45 mg per ml) by using IKA 10 at Speed #4 for 10 seconds. Sieve the tumour extract through 100 u, centrifuge at 900 g for 10 min. Re-suspend cells briefly in 0.5-1 ml PBS. Add formaldehyde to a final concentration of 2-4% formaldehyde. Fix for 10 minutes at 37° C. Chill tubes on ice for 1 minute.
Permeabilize cells by adding ice-cold 100% methanol slowly to pre-chilled cells, while gently vortexing, to a final concentration of 90% methanol. Alternatively, to remove fix prior to permeabilization, pellet cells by centrifugation and re-suspend in 90% methanol. Incubate 30 minutes on ice. Proceed with staining or store cells at −20° C. in 90% methanol. Aliquot 0.5-1×10^6 cells into each assay tube (by volume). Add 2-3 ml Incubation Buffer to each tube and rinse by centrifugation. Repeat. Re-suspend cells in 100 μl Incubation Buffer per assay tube. Analyze by flow cytometry like PBMCs.

A549 tumor cells = assay: A549 xenograft model; format: in vivo; conditions: A549 Xenograft model
Experimental: Sub-cutaneous (SC) injection of 5×10^6 A549 tumor cells on the left flank of 48 female athymic nude mice. Randomization of mice 14 days after tumor cell injection into 6 groups of 8 mice each with a mean tumor volume of 134±5 mm3.
Formulation: 20% HPC, 2% ethanol solution in PBS for the compounds No. 45, 117 and 179.
• Normal saline for Erlotinib® Dosing route: Oral for the compounds No. 45, 117 and 179, and Erlotinib® Dose Volume: 10 mL/Kg body weight Dosing schedule: Once daily for 14 consecutive days (Q1Dx14) Dosage: • Group1. Vehicle control • Group2. Erlotinib®-100 MPK • Group3. Compound No. 45—10 MPK • Group4. Compound No. 45—30 MPK • Group5. Compound No. 45—100 MPK • Group6. Compound No. 117—30 MPK • Group7. Compound No. 117—100 MPK • Group8. Compound No. 179—10 MPK • Group9. […] Plasma collected for drug concentration estimation and whole blood was collected to isolate PBMCs (peripheral blood monocytes) to determine pStat3 inhibition by flow cytometry as PD readout. Tumors were snap frozen in liquid nitrogen and stored at −80° C. to estimate pStat3 by flow cytometry as PD readout EXPT. 2
SC injection of 5×10^6 A549 tumor cells on the left flank of 24 female athymic nude mice. Randomization of mice 14 days after tumor cell injection into 3 groups of 8 mice each with a mean tumor volume of 75±7 mm3.
(§3) Formulation: 20% HPC, 2% ethanol solution in PBS for the compound No. 45
• Normal saline for Erlotinib® Dosing route: Oral for compound No. 45 and Erlotinib® Dose Volume: 10 mL/Kg body weight Dosing schedule: Once daily for 14 consecutive days (Q1Dx14) Dosage: • Group1. Vehicle control • Group2. Compound No. 45—150 MPK • Group3. […] Plasma collected for drug concentration estimation and whole blood was collected to isolate PBMCs to determine pStat3 inhibition by flow cytometry as PD readout. Tumors were snap frozen in liquid nitrogen and stored at −80° C. to estimate pStat3 by flow cytometry as PD readout Results: […]

B16F10 tumor cells = assay: B16F10 metastasis model; format: in vivo, C57B16 mice; conditions: B16F10 model, 5 MPK
Experimental: IV injection of 0.1×10^6 B16F10 tumor cells in the tail vain of 60 male C57B16 mice. Randomization of mice one day after tumor cell injection into 4 groups of 15 mice. Out of 15, 6 mice were sacrificed on 14th day for counting metastatic foci on lungs. Rest 9 mice were dosed continuously till morbidity/mortality for recording survival.
as §3
Plasma collected for drug concentration estimation and whole blood was collected to isolate PBMCs to determine pStat3 inhibition by flow cytometry as PD readout.

Chain of JAK2 (O60674 whole entry): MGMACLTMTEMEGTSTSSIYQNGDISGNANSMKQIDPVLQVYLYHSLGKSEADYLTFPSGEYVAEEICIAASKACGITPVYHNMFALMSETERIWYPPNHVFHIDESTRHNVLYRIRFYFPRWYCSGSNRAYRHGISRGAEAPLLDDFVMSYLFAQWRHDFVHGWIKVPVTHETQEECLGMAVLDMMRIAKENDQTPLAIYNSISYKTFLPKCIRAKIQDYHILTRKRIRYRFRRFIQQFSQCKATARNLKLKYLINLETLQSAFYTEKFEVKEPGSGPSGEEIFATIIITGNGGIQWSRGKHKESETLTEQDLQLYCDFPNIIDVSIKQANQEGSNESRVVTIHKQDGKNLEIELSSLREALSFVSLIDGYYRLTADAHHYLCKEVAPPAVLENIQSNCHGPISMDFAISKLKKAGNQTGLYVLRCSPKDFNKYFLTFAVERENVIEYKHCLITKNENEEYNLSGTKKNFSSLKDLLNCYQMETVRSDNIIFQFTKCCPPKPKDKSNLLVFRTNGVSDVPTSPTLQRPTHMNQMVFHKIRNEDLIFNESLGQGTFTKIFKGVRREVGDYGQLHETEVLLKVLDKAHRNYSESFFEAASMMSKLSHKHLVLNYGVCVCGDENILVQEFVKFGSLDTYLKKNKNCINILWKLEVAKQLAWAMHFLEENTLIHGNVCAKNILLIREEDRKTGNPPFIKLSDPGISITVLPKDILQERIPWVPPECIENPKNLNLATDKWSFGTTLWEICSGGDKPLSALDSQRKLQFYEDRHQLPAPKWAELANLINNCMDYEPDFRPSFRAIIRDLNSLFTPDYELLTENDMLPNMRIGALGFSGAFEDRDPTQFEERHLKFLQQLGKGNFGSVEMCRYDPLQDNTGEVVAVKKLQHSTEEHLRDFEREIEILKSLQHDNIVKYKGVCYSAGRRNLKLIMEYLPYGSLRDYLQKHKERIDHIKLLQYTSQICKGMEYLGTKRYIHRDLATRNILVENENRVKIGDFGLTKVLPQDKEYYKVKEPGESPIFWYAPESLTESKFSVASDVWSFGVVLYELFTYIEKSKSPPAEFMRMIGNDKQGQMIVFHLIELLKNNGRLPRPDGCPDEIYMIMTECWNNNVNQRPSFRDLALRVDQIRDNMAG
Chain of c-Src (P12931 whole entry, looked up): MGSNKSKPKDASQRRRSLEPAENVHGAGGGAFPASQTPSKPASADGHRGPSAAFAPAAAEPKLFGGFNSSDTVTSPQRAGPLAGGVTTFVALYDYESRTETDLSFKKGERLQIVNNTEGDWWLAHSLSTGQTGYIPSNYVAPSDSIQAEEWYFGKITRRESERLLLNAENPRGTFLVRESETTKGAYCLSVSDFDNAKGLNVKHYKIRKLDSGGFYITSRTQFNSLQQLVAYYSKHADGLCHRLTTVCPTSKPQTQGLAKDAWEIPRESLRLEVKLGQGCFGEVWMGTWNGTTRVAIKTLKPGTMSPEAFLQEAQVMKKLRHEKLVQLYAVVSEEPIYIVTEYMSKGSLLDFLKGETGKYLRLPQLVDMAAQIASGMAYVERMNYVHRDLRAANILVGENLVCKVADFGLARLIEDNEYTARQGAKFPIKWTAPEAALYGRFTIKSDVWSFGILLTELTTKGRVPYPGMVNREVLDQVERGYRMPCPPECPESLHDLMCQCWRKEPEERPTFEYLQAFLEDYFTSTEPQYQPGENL
Chain of JAK1 (P23458 whole entry): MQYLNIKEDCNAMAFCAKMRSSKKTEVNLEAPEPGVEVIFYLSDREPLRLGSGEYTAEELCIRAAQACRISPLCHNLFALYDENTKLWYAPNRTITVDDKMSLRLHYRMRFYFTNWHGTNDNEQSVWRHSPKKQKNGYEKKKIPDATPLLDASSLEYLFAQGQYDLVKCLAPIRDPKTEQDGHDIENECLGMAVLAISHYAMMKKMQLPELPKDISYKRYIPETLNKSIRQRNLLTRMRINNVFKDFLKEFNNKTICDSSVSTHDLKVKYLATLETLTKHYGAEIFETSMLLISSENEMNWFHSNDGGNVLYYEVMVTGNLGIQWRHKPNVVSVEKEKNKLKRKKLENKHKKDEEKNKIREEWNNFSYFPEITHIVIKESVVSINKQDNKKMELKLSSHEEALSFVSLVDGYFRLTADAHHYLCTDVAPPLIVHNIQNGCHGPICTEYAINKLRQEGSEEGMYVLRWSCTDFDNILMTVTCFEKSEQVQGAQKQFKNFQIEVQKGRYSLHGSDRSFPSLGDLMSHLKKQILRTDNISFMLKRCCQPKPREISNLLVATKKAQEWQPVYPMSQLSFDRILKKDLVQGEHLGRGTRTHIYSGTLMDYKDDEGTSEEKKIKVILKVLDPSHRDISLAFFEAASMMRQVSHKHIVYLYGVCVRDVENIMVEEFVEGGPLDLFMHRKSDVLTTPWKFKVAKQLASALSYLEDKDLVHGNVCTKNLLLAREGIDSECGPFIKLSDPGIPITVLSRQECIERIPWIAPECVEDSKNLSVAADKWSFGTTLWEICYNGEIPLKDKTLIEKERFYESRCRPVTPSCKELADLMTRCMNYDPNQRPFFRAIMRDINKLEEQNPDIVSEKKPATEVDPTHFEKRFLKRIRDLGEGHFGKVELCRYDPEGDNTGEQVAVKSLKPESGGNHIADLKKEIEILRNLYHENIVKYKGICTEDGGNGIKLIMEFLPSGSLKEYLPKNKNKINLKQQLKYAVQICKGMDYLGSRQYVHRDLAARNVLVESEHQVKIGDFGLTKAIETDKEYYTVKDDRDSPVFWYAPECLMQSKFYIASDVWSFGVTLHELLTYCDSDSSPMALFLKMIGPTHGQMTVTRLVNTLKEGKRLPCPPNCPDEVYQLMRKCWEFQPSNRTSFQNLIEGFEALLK

Work on Cc1ccc(NC(=O)c2cccc(C(F)(F)F)c2)cc1N1CCc2nc(Nc3ccc(C(=O)N4CCN(C)CC4)cc3)ncc2C1 [Compound 17, N-(4-Methyl-3-{2-[4-(4-methyl-piperazine-1-carbonyl)-phenylamino]-7,8-dihydro-5H-pyrido[4,3-d]pyrimidin-6-yl}-phenyl)-3-trifluoromethyl-benzamide] yielded an IC50 (pStat3 [1]) of 0.15 µM, an EC50 (A431 cancer cell line) of 0.092 µM and an EC50 (A549 cells) of 0.01 µM. It also gave an EC50 (Mda-Mb-231 cells) of 0.044 µM, a Vd (Volume distribution) of 7.7 L/kg and an inhibition at 0.1 µM (JAK1) of 85%. For the same molecule, the inhibition at 1 µM (JAK1) was 89%, the IC50 (c-Src) was 0.002 µM and the IC50 (JAK2) was 0.003 µM.

Molecule Cc1ccc(NC(=O)CCC(F)(F)F)cc1N1CCc2nc(Nc3ccc(N4CCN(C)CC4)cc3)ncc2C1 [Compound 131, 4,4,4-Trifluoro-N-(4-methyl-3-{2-[4-(4-methyl-piperazin-1-yl)-phenylamino]-7,8-dihydro-5H-pyrido[4,3-d]pyrimidin-6-yl}-phenyl)-butyramide] has an EC50 (Mda-Mb-231 cells) of 0.88 µM, a Vd (Volume distribution) of 7.14 L/kg and an inhibition at 0.1 µM (c-Src) of 74%. It also gave an inhibition at 1 µM (c-Src) of 90%.

Cc1ccc(NC(=O)CCC(F)(F)F)cc1N1CCc2nc(Nc3ccc(OCCN4CCCC4)cc3)ncc2C1 [Compound 147, 4,4,4-Trifluoro-N-(4-methyl-3-{2-[4-(2-pyrrolidin-1-yl-ethoxy)-phenylamino]-7,8-dihydro-5H-pyrido[4,3-d]pyrimidin-6-yl}-phenyl)-butyramide] gave an EC50 (Mda-Mb-231 cells) of 0.72 µM, a Vd (Volume distribution) of 20.6 L/kg and an inhibition at 0.1 µM (c-Src) of 67%. For the same molecule, the inhibition at 1 µM (c-Src) was 90%, the IC50 (JAK2) was 0.021 µM and the inhibition at 0.1 µM (JAK2) was 88%. It also gave an inhibition at 1 µM (JAK2) of 93%.

Cc1ccc(NC(=O)CC(C)C(F)(F)F)cc1N1CCc2nc(Nc3ccc(OCCN4CCCC4)cc3)ncc2C1 (stereo not drawn) [Compound 155, 4,4,4-Trifluoro-3-methyl-N-(4-methyl-3-{2-[4-(2-pyrrolidin-1-yl-ethoxy)-phenylamino]-7,8-dihydro-5H-pyrido[4,3-d]pyrimidin-6-yl}-phenyl)-butyramide] showed an EC50 (Mda-Mb-231 cells) of 1.2 µM, a Vd (Volume distribution) of 11.8 L/kg and an IC50 (c-Src) of 0.002 µM. For the same molecule, the IC50 (JAK2) was 0.018 µM.

Molecule CN1CCN(c2ccc(Nc3ncc4c(n3)CCN(c3cc(NC(=O)c5cccc(C(F)(F)F)c5)ccc3Cl)C4=O)cc2)CC1 [Compound 162, N-(4-Chloro-3-{2-[4-(4-methyl-piperazin-1-yl)-phenylamino]-5-oxo-7,8-dihydro-5H-pyrido[4,3-d]pyrimidin-6-yl}-phenyl)-3-trifluoromethyl-benzamide] has an IC50 (pStat3 [1]) of 0.35 µM, an EC50 (A431 cancer cell line) of 0.6 µM and an EC50 (A549 cells) of 1.14 µM. For the same molecule, the EC50 (Mda-Mb-231 cells) was 1.38 µM, the Vd (Volume distribution) was 3.35 L/kg and the IC50 (c-Src) was 0.027 µM. It also gave an inhibition at 0.1 µM (c-Src) of 73%, an inhibition at 1 µM (c-Src) of 81% and an IC50 (JAK2) of 0.006 µM. The inhibition at 0.1 µM (JAK2) was 92% and the inhibition at 1 µM (JAK2) was 97%.

With Cc1cc(Nc2ncc3c(n2)CCN(c2cc(NC(=O)c4cccc(C(F)(F)F)c4)ccc2Cl)C3=O)ccc1N1CCN(C)CC1 [Compound 171, N-(4-Chloro-3-{2-[3-methyl-4-(4-methyl-piperazin-1-yl)-phenylamino]-5-oxo-7,8-dihydro-5H-pyrido[4,3-d]pyrimidin-6-yl}-phenyl)-3-trifluoromethyl-benzamide] the IC50 (pStat3 [1]) was 0.471 µM, the EC50 (A549 cells) was 2.1 µM and the EC50 (Mda-Mb-231 cells) was 1.3 µM. The Vd (Volume distribution) was 0.794 L/kg, the “distribution volume (in words)” value (Volume distribution) was “weak volume of distribution” and the inhibition at 0.1 µM (JAK1) was 61%. It also gave an inhibition at 1 µM (JAK1) of 84%, an IC50 (c-Src) of 0.02 µM and an inhibition at 0.1 µM (c-Src) of 74%. It also gave an inhibition at 1 µM (c-Src) of 87%, an IC50 (JAK2) of 0.019 µM and an inhibition at 0.1 µM (JAK2) of 92%. It also gave an inhibition at 1 µM (JAK2) of 97%.

For O=C(COc1ccc(Nc2ncc3c(n2)CCN(c2cc(NC(=O)c4cccc(C(F)(F)F)c4)ccc2Cl)C3=O)cc1)NC1CC1 [Compound 185, N-(4-Chloro-3-[2-(4-(cyclopropylcarbamoylmethoxy)phenylamino)-5-oxo-7,8-dihydro-5H-pyrido[4,3-d]pyrimidin-6-yl]-phenyl}-3-trifluoromethyl-benzamide], the Vd (Volume distribution) was 0.583 L/kg.

With C#Cc1cccc(Nc2ncnc3cc(OCCOC)c(OCCOC)cc23)c1 [Erlotinib, reference compound] the “PBMCs % pStat3 inhibition” value (pStat3 [2]; A549 Xenograft model, 100 MPK) was 44.43%, the “Tumors % pStat3 inhibition” value (pStat3 [3]; 100 MPK) was 28.14% and the “% TGI (Tumor Growth Inhibition)” value (A549 tumor cells; 100 MPK) was 59.55%.

With CC(=O)O[C@H]1C(=O)[C@@]2(C)[C@H]([C@H](OC(=O)c3ccccc3)[C@]3(O)C[C@H](OC(=O)[C@H](O)[C@@H](NC(=O)c4ccccc4)c4ccccc4)C(C)=C1C3(C)C)[C@]1(OC(C)=O)CO[C@@H]1C[C@@H]2O [Taxol, paclitaxel, reference compound] the “PBMCs % pStat3 inhibition” value (pStat3 [2]; B16F10 model, 5 MPK) was 25% and the “Metastasis Inhibition” value (B16F10 tumor cells) was 32%.

In the case of CCC1=C[C@@H]2CN(C1)Cc1c([nH]c3ccccc13)[C@@](C(=O)OC)(c1cc3c(cc1OC)N(C)[C@H]1[C@@](O)(C(=O)OC)[C@H](OC(C)=O)[C@]4(CC)C=CCN5CC[C@]31[C@@H]54)C2 [Vinorelbine, reference compound], the “PBMCs % pStat3 inhibition” value (pStat3 [2]; A549 Xenograft model, 8 MPK) is reported as 28.8%, the “Tumors % pStat3 inhibition” value (pStat3 [3]; 8 MPK) is reported as 25.2% and the “% TGI (Tumor Growth Inhibition)” value (A549 tumor cells; 8 MPK) is reported as 51.89%.
